Tested on: mutant Huntington (HTT) protein
Experiment: HTT Mutant HTRF iPSC assay (mHTT protein lowering)
Assay type: cell-based
Settings: human iPSC derived from a HTT patient with a poly-Q49 mutation

Compound | IC50
COc1cc2nn(C)cc2cc1NC(=O)c1nc2ccc(C3CCN(C)C3)nc2s1 (stereo not shown) [Compound 137, N-(6-methoxy-2-methyl-2H-indazol-5-yl)-5-(1-methylpyrrolidin-3-yl)thiazolo[5,4-b]pyridine-2-carboxamide] | < 100 nM
Cc1cn2cc(NC(=O)c3nc4ccc(C5CCN(C)C5)nc4s3)nc(C)c2n1 (stereo not shown) [Compound 138, N-(2,8-dimethylimidazo[1,2-a]pyrazin-6-yl)-5-(1-methylpyrrolidin-3-yl)thiazolo[5,4-b]pyridine-2-carboxamide] | 100 to 1000 nM
Cc1cn2cc(NC(=O)c3nc4ccc(C5C[C@@H](C)N[C@@H](C)C5)nc4s3)cc(F)c2n1 (stereo partly drawn) [Compound 139, 5-[(2S,6R)-2,6-dimethyl-4-piperidyl]-N-(8-fluoro-2-methyl-imidazo[1,2-a]pyridin-6-yl)thiazolo[5,4-b]pyridine-2-carboxamide] | < 100 nM
Cc1cn2cc(NC(=O)c3nc4ccc(C5=C[C@@H](C)N[C@@H](C)C5)nc4s3)cc(F)c2n1 [Compound 140, 5-[(2S,6R)-2,6-dimethyl-1,2,3,6-tetrahydropyridin-4-yl]-N-(8-fluoro-2-methyl-imidazo[1,2-a]pyridin-6-yl)thiazolo[5,4-b]pyridine-2-carboxamide] | < 100 nM
Cc1cn2cc(NC(=O)c3cc4ncc(C5CC6CCC(C5)N6)nc4s3)cc(F)c2n1 (stereo not shown) [Compound 142, 3-(8-azabicyclo[3.2.1]octan-3-yl)-N-(8-fluoro-2-methylimidazo[1,2-a]pyridin-6-yl)thieno[2,3-b]pyrazine-6-carboxamide] | 100 to 1000 nM
Cc1cn2cc(NC(=O)c3cc4ncc(C5CCCCN5)nc4s3)cc(F)c2n1 (stereo not shown) [Compound 144, N-(8-fluoro-2-methylimidazo[1,2-a]pyridin-6-yl)-3-(piperidin-2-yl)thieno[2,3-b]pyrazine-6-carboxamide] | 1000 to 9000 nM
Cc1cn2cc(NC(=O)c3cc4ncc(C5CCNC5)nc4s3)cc(F)c2n1 (stereo not shown) [Compound 146, N-(8-fluoro-2-methylimidazo[1,2-a]pyridin-6-yl)-3-(pyrrolidin-3-yl)thieno[2,3-b]pyrazine-6-carboxamide] | < 100 nM
Cc1cn2cc(NC(=O)c3cc4ncc(C5=CCNCC5)nc4s3)cc(F)c2n1 [Compound 147, N-(8-fluoro-2-methylimidazo[1,2-a]pyridin-6-yl)-3-(1,2,3,6-tetrahydropyridin-4-yl)thieno[2,3-b]pyrazine-6-carboxamide] | < 100 nM
Cc1cn2cc(NC(=O)c3cc4ncc(C5CCNCC5)nc4s3)cc(F)c2n1 [Compound 148, N-(8-fluoro-2-methyl-imidazo[1,2-a]pyridin-6-yl)-3-(4-piperidyl)thieno[2,3-b]pyrazine-6-carboxamide] | < 100 nM
Cc1cn2cc(NC(=O)c3cc4cnc(N5CC[C@@H](N(C)C)C5)nc4s3)cc(F)c2n1 [Compound 149, (R)-2-(3-(dimethylamino)pyrrolidin-1-yl)-N-(8-fluoro-2-methylimidazo[1,2-a]pyridin-6-yl)thieno[2,3-d]pyrimidine-6-carboxamide] | 100 to 1000 nM
Cc1cn2cc(NC(=O)c3cc4cnc(N5CC[C@@H](N(C)C)C5)nc4s3)nc(C)c2n1 [Compound 150, (R)-2-(3-(dimethylamino)pyrrolidin-1-yl)-N-(2,8-dimethylimidazo[1,2-a]pyrazin-6-yl)thieno[2,3-d]pyrimidine-6-carboxamide] | 100 to 1000 nM
Cc1cn2cc(NC(=O)c3cc4cnc(N5CC[C@H](N(C)C)C5)nc4s3)nc(C)c2n1 [Compound 151, (S)-2-(3-(dimethylamino)pyrrolidin-1-yl)-N-(2,8-dimethylimidazo[1,2-a]pyrazin-6-yl)thieno[2,3-d]pyrimidine-6-carboxamide] | 1000 to 9000 nM
Cc1cn2cc(NC(=O)c3cc4cnc(N5CC[C@H](N(C)C)C5)nc4s3)cc(F)c2n1 [Compound 152, 2-[(3S)-3-(dimethylamino)pyrrolidin-1-yl]-N-(8-fluoro-2-methyl-imidazo[1,2-a]pyridin-6-yl)thieno[2,3-d]pyrimidine-6-carboxamide] | 100 to 1000 nM
Cc1cn2cc(C(=O)Nc3cc4ccc(N5CC[C@H](N(C)C)C5)nc4s3)cc(F)c2n1 [Compound 153, N-[6-[(3S)-3-(dimethylamino)pyrrolidin-1-yl]thieno[2,3-b]pyridin-2-yl]-8-fluoro-2-methyl-imidazo[1,2-a]pyridine-6-carboxamide] | < 100 nM
Cc1cn2cc(NC(=O)c3cc4ccc(OC5CCC(N(C)C)C5)nc4s3)cc(F)c2n1 (stereo not shown) [Compound 155, 6-((3-(dimethylamino)cyclopentyl)oxy)-N-(8-fluoro-2-methylimidazo[1,2-a]pyridin-6-yl)thieno[2,3-b]pyridine-2-carboxamide] | < 100 nM
Cc1cn2cc(NC(=O)c3cc4ccc(OC5C[C@@H](C)N[C@H](C)C5)nc4s3)cc(F)c2n1 (stereo partly shown) [Compound 157] | 100 to 1000 nM
Cc1cn2cc(NC(=O)c3cc4ccc(OC5CCC6(CCN(C)CC6)C5)nc4s3)cc(F)c2n1 (stereo not shown) [Compound 160, N-(8-fluoro-2-methylimidazo[1,2-a]pyridin-6-yl)-6-((8-methyl-8-azaspiro[4.5]decan-2-yl)oxy)thieno[2,3-b]pyridine-2-carboxamide] | 100 to 1000 nM

Compound | IC50
Cc1cn2cc(NC(=O)c3cc4ccc(OC5CC6(CCN(C)CC6)C5)nc4s3)cc(F)c2n1 [Compound 162, N-(8-fluoro-2-methylimidazo[1,2-a]pyridin-6-yl)-6-((7-methyl-7-azaspiro[3.5]nonan-2-yl)oxy)thieno[2,3-b]pyridine-2-carboxamide] | 100 to 1000 nM
Cc1cn2cc(NC(=O)c3cc4nc(C5CCN(C)CC5)ccc4o3)cc(F)c2n1 [Compound 163, N-(8-fluoro-2-methyl-imidazo[1,2-a]pyridin-6-yl)-5-(1-methyl-4-piperidyl)furo[3,2-b]pyridine-2-carboxamide] | 100 to 1000 nM
COc1cc2nn(C)cc2cc1NC(=O)c1cc2nc(N3CCC(N4CCC4)C3)ccc2o1 (stereo not shown) [Compound 164, 5-(3-(azetidin-1-yl)pyrrolidin-1-yl)-N-(6-methoxy-2-methyl-2H-indazol-5-yl)furo[3,2-b]pyridine-2-carboxamide] | 100 to 1000 nM
Cc1cn2cc(NC(=O)c3cc4nc(N5CCN(C)CC5)ccc4o3)cc(F)c2n1 [Compound 165, N-(8-fluoro-2-methylimidazo[1,2-a]pyridin-6-yl)-5-(4-methylpiperazin-1-yl)furo[3,2-b]pyridine-2-carboxamide] | < 100 nM
Cc1cn2cc(NC(=O)c3cc4nc(N5CC[C@@H](N(C)C)C5)ccc4o3)cc(F)c2n1 [Compound 166, (R)-5-(3-(dimethylamino)pyrrolidin-1-yl)-N-(8-fluoro-2-methylimidazo[1,2-a]pyridin-6-yl)furo[3,2-b]pyridine-2-carboxamide] | < 100 nM
COc1cc2nn(C)cc2cc1NC(=O)c1cc2nc(N3CCC4(CCCN4C)C3)ccc2o1 (stereo not shown) [Compound 167, N-(6-methoxy-2-methyl-2H-indazol-5-yl)-5-(1-methyl-1,7-diazaspiro[4.4]nonan-7-yl)furo[3,2-b]pyridine-2-carboxamide] | < 100 nM
Cc1cn2cc(NC(=O)c3cc4nc(N5CCNCC5)ccc4o3)cc(F)c2n1 [Compound 169, N-(8-fluoro-2-methylimidazo[1,2-a]pyridin-6-yl)-5-(piperazin-1-yl)furo[3,2-b]pyridine-2-carboxamide] | < 100 nM
COc1cc2nn(C)cc2cc1NC(=O)c1cc2nc(N3CCC(N(C)C)C3)ccc2o1 (stereo not shown) [Compound 170, 5-(3-(dimethylamino)pyrrolidin-1-yl)-N-(6-methoxy-2-methyl-2H-indazol-5-yl)furo[3,2-b]pyridine-2-carboxamide] | < 100 nM
COc1cn2nc(C)cc2cc1NC(=O)c1cc2nc(N3C[C@@H]4CN(C)C[C@@H]43)ccc2o1 [Compound 171, N-(6-methoxy-2-methylpyrazolo[1,5-a]pyridin-5-yl)-5-((1S,5R)-3-methyl-3,6-diazabicyclo[3.2.0]heptan-6-yl)furo[3,2-b]pyridine-2-carboxamide] | 100 to 1000 nM
COc1cc2nn(C)cc2cc1NC(=O)c1cc2nc(N3CC[C@@H](N4CCC4)C3)ccc2o1 [Compound 172, (R)-5-(3-(azetidin-1-yl)pyrrolidin-1-yl)-N-(6-methoxy-2-methyl-2H-indazol-5-yl)furo[3,2-b]pyridine-2-carboxamide] | 100 to 1000 nM
COc1cc2nn(C)cc2cc1NC(=O)c1cc2nc(N3CC[C@H](N4CCC4)C3)ccc2o1 [Compound 173, (S)-5-(3-(azetidin-1-yl)pyrrolidin-1-yl)-N-(6-methoxy-2-methyl-2H-indazol-5-yl)furo[3,2-b]pyridine-2-carboxamide] | 100 to 1000 nM
Cc1cn2cc(NC(=O)c3cc4ccc(C5CCNC(C)(C)C5)nc4s3)cc(F)c2n1 (stereo not shown) [Compound 176, 6-(2,2-dimethylpiperidin-4-yl)-N-(8-fluoro-2-methylimidazo[1,2-a]pyridin-6-yl)thieno[2,3-b]pyridine-2-carboxamide] | < 100 nM
COc1cc2nn(C)cc2cc1NC(=O)c1cc2ccc(C3CCN(C)CC3)nc2s1 [Compound 178, N-(6-methoxy-2-methyl-2H-indazol-5-yl)-6-(1-methylpiperidin-4-yl)thieno[2,3-b]pyridine-2-carboxamide] | < 100 nM
Cc1cn2cc(NC(=O)c3cc4ccc(C5CNC(C)C5)nc4s3)cc(F)c2n1 (stereo not shown) [Compound 179, N-(8-fluoro-2-methylimidazo[1,2-a]pyridin-6-yl)-6-(5-methylpyrrolidin-3-yl)thieno[2,3-b]pyridine-2-carboxamide] | < 100 nM
Cc1cn2cc(NC(=O)c3cc4ccc(C5CCC6(CNC6)C5)nc4s3)cc(F)c2n1 (stereo not shown) [Compound 182, N-(8-fluoro-2-methylimidazo[1,2-a]pyridin-6-yl)-6-(2-azaspiro[3.4]octan-6-yl)thieno[2,3-b]pyridine-2-carboxamide] | 100 to 1000 nM
CCN1CCN(c2ccc3cc(C(=O)Nc4cc5cc(C)nn5cc4OC)sc3n2)CC1 [Compound 183, 6-(4-ethylpiperazin-1-yl)-N-(6-methoxy-2-methylpyrazolo[1,5-a]pyridin-5-yl)thieno[2,3-b]pyridine-2-carboxamide] | < 100 nM
COc1nc(NC(=O)c2cc3ccc(C4CCN(C)CC4)nc3s2)cn2cc(C)nc12 [Compound 184, N-(8-methoxy-2-methylimidazo[1,2-a]pyrazin-6-yl)-6-(1-methylpiperidin-4-yl)thieno[2,3-b]pyridine-2-carboxamide] | < 100 nM
